From patent publication US20080280833A1, “Therapeutic Peptides Derived from Urokinase Plasminogen Activator Receptor” (priority 2005, published 2008)

Legend:
LB6 cells = assay: Chemotaxis assay, modified Boyden chambers, LB6 cells; type: cell-based, mouse
Method: (§1) Chemotaxis assay was performed as described (Degryse et al., 1999, 2001a, 2001b) with modified Boyden chambers. Filters (5 μm pore size, Neuro Probe, Gaithersburg, Md.) were treated with collagen I (100 μg/ml) and fibronectin (10 μg/ml, Roche).≈40-50,000 cells in serum-free DMEM were added to the upper well and the chemoattractants tested added to the lower well. When present, antibodies, or inhibitors were added in both wells. After overnight migration at 37° C., cells remaining on the upper surface of filters were scraped off and filters were fixed in methanol and stained in a solution of 10% (w/v) crystal violet in 20% (v/v) methanol. The experiments were performed at least twice in triplicate and the results, expressed as fold over control, are the mean ±SD of the number of cells counted in ten high power fields per filter. Random cell migration, i.e. migration in the absence of chemoattractant, was given the arbitrary value of 100%.

LB6 clone 19 cells [1] = assay: Chemotaxis assay, LB6 clone 19 cells (wild-type human uPAR); type: cell-based, mouse; details: VN 5 μg/ml
Method: as §1

NIH 3T3 cells = assay: Chemotaxis assay, NIH 3T3 cells; type: cell-based, mouse; details: NIH 3T3, VN 1 μg/ml
Method: as §1

NIH 3T3-uPAR cells = assay: Chemotaxis assay, NIH 3T3-uPAR cells; type: cell-based, mouse; details: VN 1 μg/ml
Method: as §1

HEK-293 cells = assay: Chemotaxis assay, HEK-293 cells; type: cell-based, human; details: HEK-293, VN 1 μg/ml
Method: as §1

HEK-293-uPAR cells = assay: Chemotaxis assay, HEK-293-uPAR cells; type: cell-based, human
Method: as §1

LB6-D1HD3 cells [2] = assay: Chemotaxis assay, LB6-D1HD3 cells (uPAR lacking domain 2); type: cell-based, mouse
Method: as §1

LB6-D1D2 cells [3] = assay: Chemotaxis assay, LB6-D1D2 cells (uPAR lacking domain 3); type: cell-based, mouse
Method: as §1

NIH 3T3-D1HD3 cells = assay: Chemotaxis assay, NIH 3T3-D1HD3 cells; type: cell-based, mouse
Method: as §1

RSMC = assay: Immunofluorescence microscopy, actin cytoskeleton and cell morphology; type: cell-based, rat; details: 30 minutes at 37° C., peptide 1 pM or VN 1 μg/ml
Method: (§2) As previously described (Degryse et al., 1999; 2004) 15,000-25,000 cells (20-40% confluence), were seeded on glass coverslips in 2 cm^2 well, cultured for 24 hours in DMEM plus 10% FCS, washed with PBS and cultured for another 24 hours without FCS. After stimulation, RSMC were fixed for 20 min at RT with 3% paraformaldehyde, 2% sucrose in PBS pH 7.5, washed 3 times with PBS-BSA 0.2%, permeabilized with 20 mM hepes pH 7.4, 300 mM saccharose, 50 mM NaCl, 3 mM MgCl2, 0.5% (v/v) Triton X-100 for 3 min at 4° C., and washed 3 times with PBS-BSA 0.2%. RSMC were incubated in PBS-BSA 2% for 15 min at 37° C., then with anti-Stat1 primary antibodies for 30 min at 37° C., washed 3 times with PBS-BSA 0.2%, and further incubated with PBS-BSA 2% for 15 min at 37° C. Cells were stained with the secondary TRITC-antibody and with FITC-phalloidin for visualization of filamentous actin, for 30 min at 37° C. DAPI (4′,6-diamidino-2-phenylindole, Roche) was used to label the nucleus. Finally, after 3 washes with PBS-BSA 0.2%, one with distilled water, coverslips were mounted with 20% (w/v) Mowiol. Fluorescence Photographs were taken with a Zeiss Axiophot microscope

Stat1 = assay: Immunofluorescence microscopy, Stat1 distribution; type: cell-based, rat; details: RSMC, 30 minutes at 37° C., peptide 1 pM or VN 1 μg/ml
Method: as §2
To quantify the activation of Stat1, random pictures were taken and nuclei positively stained for Stat1 were counted and expressed in percent.

[4] = system: human HT1080 fibrosarcoma cells; assay: Matrigel invasion assay; type: cell-based; details: substance alone, 24 hours at 37° C.
LB6 clone 19 cells [5] = assay: 125I-VN cell binding, LB6 clone 19; design: species or system mouse; details: 125I-VN 0.5 nM, on ice 90 minutes
Method: (§3) VN was iodinated using Iodogen (Pierce Chemical Co.) at a specific activity of 30-60×10^6 cpm/mg. Briefly, 10 μg of VN dissolved in 0.1 M tris pH 7.6, 0.1% (v/v) Tween 80, were incubated with 0.5 μCi ^125Iodine for 15 minutes at room temperature, in a volume of 100 μl. The reaction was stopped by adding 1 ml of stop/elution buffer, 0.1 M tris pH 8.1, 0.1% (v/v) Chaps and 50 μl of N-acetyl tyrosine (10 mg/ml in 0.1 M tris pH 7.4). Labeled VN was separated from unbound ^125Iodine by gel chromatography in PD-10 column (Pharmacia) in the stop/elution buffer.
(§4) Cells were seeded in 96-well culture dishes treated overnight with 1.5% gelatin in PBS pH 7.4, grown to confluence in DMEM plus 10% FCS, then serum-starved for 24 hours in DMEM. Total binding was determined by incubating the cells on ice for 90 minutes in binding buffer (DMEM containing 0.1% (w/v) BSA and 10 mM Hepes pH 7.4) plus 0.5 nM ^125I-VN. Nonspecific binding was measured by competition with a 100 fold excess of unlabeled VN. At the end of the incubation time, the cells were washed 3 times with ice-cold binding buffer and once with ice-cold PBS, then lysed in a solution of 1% SDS, 1% Triton X-100 and the associated radioactivity counted. Cell number was determined in 6 wells per lines cultured in parallel, and the results were standardized as cpm/10^5 cells.

LB6-D1HD3 cells [6] = assay: 125I-VN cell binding, LB6-D1HD3; design: species or system mouse; details: 125I-VN 0.5 nM, on ice 90 minutes
Method: as §3, §4

LB6-D1D2 cells [7] = assay: 125I-VN cell binding, LB6-D1D2; design: species or system mouse; details: 125I-VN 0.5 nM, on ice 90 minutes
Method: as §3, §4

VN: vitronectin purified from human plasma
VN-dependent cell migration (LB6 cells; LB6 cells, VN 5 μg/ml): 274 ± 3.8 % of control | stimulation of chemotaxis (LB6 cells; untransfected parental LB6 cells): 2.5 fold | VN-dependent cell migration (LB6 clone 19 cells [1]; LB6 clone 19, wild-type uPAR): 906 ± 22.8 % of control | enhancement of VN-directed cell migration of LB6 clone 19 compared to untransfected LB6 cells (LB6 clone 19 cells [1]): 3.3 fold | VN-dependent cell migration (NIH 3T3 cells): 222.7 ± 4.8 % of control | VN-dependent cell migration (NIH 3T3-uPAR cells): 397 ± 11.1 % of control | VN-dependent cell migration (HEK-293 cells): 199.1 % of control | cell migration (HEK-293 cells): 210.84 ± 26.95 % of control | chemotactic effect of VN in HEK-293-uPAR relative to untransfected HEK-293 cells (HEK-293-uPAR cells): 2 fold | VN-dependent cell migration (HEK-293-uPAR cells; HEK-293-uPAR, VN 1 μg/ml): 394.3 % of control | cell migration (HEK-293-uPAR cells; HEK-293-uPAR, VN 1 μg/ml): 417.25 ± 4.64 % of control | VN-dependent cell migration (LB6-D1HD3 cells [2]; LB6-D1HD3, VN 5 μg/ml): 102 ± 5.0 % of control | stimulation of chemotaxis (LB6-D1HD3 cells [2]; LB6 cells transfected with D1HD3-uPAR, even at 10 μg/ml): failed to stimulate | VN-dependent cell migration (LB6-D1D2 cells [3]; LB6-D1D2, VN 5 μg/ml): 280 ± 6.0 % of control | maximal stimulation of chemotaxis (LB6-D1D2 cells [3]; LB6-D1D2 cells, at 1 μg/ml): about four-fold | VN-dependent cell migration (NIH 3T3-D1HD3 cells; NIH 3T3-D1HD3, VN 1 μg/ml): 100 ± 4.0 % of control | stimulation of chemotaxis (NIH 3T3-D1HD3 cells; NIH3T3 cells transfected with D1HD3-uPAR, even at 10 μg/ml): failed to stimulate | cell morphology and actin cytoskeleton organization (RSMC): induced similar changes | Stat1 activation and translocation into the nucleus (Stat1): reproduced this effect on Stat1 localization | stimulation of Matrigel invasiveness of HT1080 cells [4]: stimulate | VN binding to cells (LB6 clone 19 cells [5]): bound | VN binding to cells (LB6-D1HD3 cells [6]): poorly | VN binding to cells (LB6-D1D2 cells [7]): poorly
